Experimental data: patent US9200051B2, “Peptide compound” (TAKEDA PHARMACEUTICAL COMPANY LIMITED, priority 2013, dated 2015)
Square brackets hold non-standard residues; d marks the D form. Peptide text beside a SMILES is read from it. αMeF = C[C@](N)(Cc1ccccc1)C(=O)O; Aib = CC(C)(N)C(=O)O

Assays:
[1] = biological target: T1, human GLP-1R (Homo sapiens, UniProt P43220); assay: Agonist activity against human GLP-1R, CRE-luciferase reporter assay in hGLP-1R/CRE-luc/CHO-K1 cells; type: cell-based; conditions: hGLP-1R/CRE-luc/CHO-K1 cells, 4 hours incubation; 10 nM GLP-1 = 100%; read-out: Agonist activity (EC50) hGLP-1R
T1 construct: expressed in transfected cells; host or cells: CHO-K1, plasmids hGLP-1/pIRESneo3 and Cre-luc(Zeo)
T1 sequence (P43220 24-463): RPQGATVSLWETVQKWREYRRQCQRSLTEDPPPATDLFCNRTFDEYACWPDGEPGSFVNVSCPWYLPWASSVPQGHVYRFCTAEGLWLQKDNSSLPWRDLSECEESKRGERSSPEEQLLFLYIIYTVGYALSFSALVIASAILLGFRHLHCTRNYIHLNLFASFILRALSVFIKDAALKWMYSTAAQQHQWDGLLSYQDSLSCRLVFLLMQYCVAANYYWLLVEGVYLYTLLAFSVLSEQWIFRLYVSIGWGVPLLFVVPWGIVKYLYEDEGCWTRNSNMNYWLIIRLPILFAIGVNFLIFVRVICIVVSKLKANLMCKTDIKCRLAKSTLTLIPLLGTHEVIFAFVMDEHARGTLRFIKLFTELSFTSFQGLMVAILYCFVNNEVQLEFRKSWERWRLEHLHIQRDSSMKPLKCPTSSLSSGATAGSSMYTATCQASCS

[2] = biological target: T2, human GIPR (Homo sapiens, UniProt P48546); assay: Agonist activity against human GIPR, CRE-luciferase reporter assay (rise in intracellular cAMP) in hGIPR/CRE-LUC/CHO-K1 cells; type: cell-based; conditions: hGIPR/CRE-LUC/CHO-K1 cells, 4 hours incubation; 10 nM GIP = 100%; read-out: Agonist activity (EC50) hGIPR
T2 construct: expressed in transfected cells; host or cells: CHO-K1 (CRE-LUC/CHO-K1), plasmid hGIPR/pMSRα-neo
T2 sequence (P48546 22-466): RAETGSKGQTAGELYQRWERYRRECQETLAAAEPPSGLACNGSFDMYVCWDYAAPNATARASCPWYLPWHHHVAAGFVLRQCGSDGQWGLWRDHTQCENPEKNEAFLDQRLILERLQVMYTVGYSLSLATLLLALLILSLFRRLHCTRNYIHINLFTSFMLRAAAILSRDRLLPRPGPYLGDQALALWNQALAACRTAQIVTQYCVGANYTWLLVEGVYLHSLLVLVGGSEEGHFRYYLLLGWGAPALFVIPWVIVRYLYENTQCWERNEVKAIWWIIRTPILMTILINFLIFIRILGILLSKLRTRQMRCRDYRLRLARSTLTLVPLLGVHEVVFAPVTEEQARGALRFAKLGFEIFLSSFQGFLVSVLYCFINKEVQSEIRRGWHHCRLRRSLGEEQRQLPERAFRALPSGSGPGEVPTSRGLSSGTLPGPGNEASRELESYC

[3] = biological target: T3, human glucagon R (Homo sapiens, UniProt P47871); assay: Agonist activity against human glucagon R, CRE-luciferase reporter assay in hGlucagonR/CRE-LUC/CHO-K1 cells; type: cell-based; conditions: hGlucagonR/CRE-LUC/CHO-K1 cells, 4 hours incubation; 10 nM glucagon = 100%; read-out: Agonist activity (EC50) hGCGR
T3 construct: expressed in transfected cells; host or cells: CHO-K1 (CRE-LUC/CHO-K1), plasmid hGlucagonR/pMSRα-neo
T3 sequence (P47871 26-477): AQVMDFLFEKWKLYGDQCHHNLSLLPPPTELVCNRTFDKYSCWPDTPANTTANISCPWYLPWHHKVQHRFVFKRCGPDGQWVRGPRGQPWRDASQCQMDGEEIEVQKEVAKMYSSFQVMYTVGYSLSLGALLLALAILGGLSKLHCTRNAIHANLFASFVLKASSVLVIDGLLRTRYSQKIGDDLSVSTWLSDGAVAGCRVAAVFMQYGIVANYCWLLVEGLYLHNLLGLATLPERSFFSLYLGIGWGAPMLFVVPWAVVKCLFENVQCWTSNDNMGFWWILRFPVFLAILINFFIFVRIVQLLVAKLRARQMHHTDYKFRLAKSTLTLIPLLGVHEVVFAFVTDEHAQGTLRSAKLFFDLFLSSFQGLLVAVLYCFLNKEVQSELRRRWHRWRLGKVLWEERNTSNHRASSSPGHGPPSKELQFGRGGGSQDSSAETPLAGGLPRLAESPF

[4] = Solubility test in Britton-Robinson buffer, observed visually; type: physicochemical
Procedure: The test compound of approximately 2 mg was measured precisely. Solvents (10 μL, 20 μL or 40 μL) with different pH (Britton-Robinson buffer (pH 3, 5, 7, 9)) were added to each test compound at 25° C., and the solubility was observed visually.

CC(C)C[C@H](NC(=O)[C@H](CC(C)C)NC(=O)[C@H](Cc1c[nH]c2ccccc12)NC(=O)[C@H](CCCCN)NC(=O)[C@@H](NC(=O)[C@H](Cc1ccccc1)NC(=O)[C@H](CCC(=O)O)NC(=O)[C@H](CCC(N)=O)NC(=O)[C@H](CCC(N)=O)NC(=O)[C@H](C)NC(=O)[C@H](CCC(N)=O)NC(=O)[C@H](CCCCN)NC(=O)[C@H](CC(=O)O)NC(=O)[C@H](CC(C)C)NC(=O)[C@H](Cc1ccc(O)cc1)NC(=O)[C@H](CCCCN)NC(=O)C(C)(C)NC(=O)[C@H](Cc1ccc(O)cc1)NC(=O)[C@H](CC(=O)O)NC(=O)[C@H](CO)NC(=O)[C@@H](NC(=O)[C@](C)(Cc1ccccc1)NC(=O)[C@@H](NC(=O)CNC(=O)[C@H](CCC(=O)O)NC(=O)C(C)(C)NC(=O)[C@@H](N)Cc1ccc(O)cc1)[C@@H](C)O)[C@@H](C)O)C(C)C)C(=O)N[C@@H](CCCCN)C(=O)NCC(=O)NCC(=O)N1CCC[C@H]1C(=O)N[C@@H](CO)C(=O)N[C@@H](CO)C(=O)NCC(=O)N[C@@H](C)C(=O)N1CCC[C@H]1C(=O)N1CCC[C@H]1C(=O)N1CCC[C@H]1C(=O)N[C@@H](CO)C(N)=O [Example 26] (H-Y[Aib]EGT[αMeF]TSDY[Aib]KYLDKQAQQEFVKWLLKGGPSSGAPPPS-NH2)
EC50 [1]: 0.015 nM
EC50 [2]: 0.013 nM
EC50 [3]: > 1000 nM
solubility ([4]; pH 3): > 200 mg/mL
solubility ([4]; pH 5): > 200 mg/mL
solubility ([4]; pH 7): > 200 mg/mL
solubility ([4]; pH 9): > 200 mg/mL
